{"source": "patent US20240301408A1", "about": "“MICRORNA 195 COMPOSITIONS AND METHODS FOR TREATING COGNITIVE IMPAIRMENT” (UNITED STATES GOVERNMENT AS REPRESENTED BY THE DEPARTMENT …, priority 2021, published 2024)", "key": {"phospho-Tau (pTau)": {"tested_on": "phospho-Tau (pTau)", "test": "brain pTau levels in ApoE KI mice after miR-195 over-expression", "format": "in vivo, mouse", "description": "Stereotaxic injection and behavior studies. Eight to nine weeks old male and female ApoE3^+/+ and ApoE4^+/+ KI mice without 5×FAD background (N=19-23/group), or with 5×FAD background (N=15-17/group) were placed in the stereotaxic apparatus with AAV2 or scramble virus administered into the dorsal CA1 regions of bilateral hippocampal brain regions using pressure injection (Labonte B et al., Nat Med 2017, and Passini M A et al., The Journal of neuroscience 2006). Injection volumes (0.5-2.0 μl) were delivered over 10 min to avoid tissue damage. […]\nBrain and neuronal sample preparation and biochemical analysis. […] Levels of Aβ42, Aβ40, pTau, Tau and ApoE were determined using high-sensitive ELISA kits. […]\nStatistical analysis. […] Levels of miR-195-5p and miR-374 were normalized to U6 and RNU6B (internal controls) while synj1 mRNA normalized to GAPDH and 18s, and then expressed as Log2fold of changes when compared to controls. Levels of synj1, dyn1, pTau, Tau, and holoAPP were normalized to β-actin levels and expressed as a percentage of the control. Absolute Aβ42, Aβ40, pTau, Tau, and ApoE concentrations were quantitatively determined by ELISA and expressed as a percentage of the control. […] Pearson correlation coefficients were calculated to determine the linear relationship between the two variables. […]"}, "BV2 cells": {"tested_on": "BV2 cells", "test": "LPS-induced gene expression (pdcd4, smad7, il10a) in BV2 microglia with miR-195-5p over-expression", "format": "cell-based", "description": "For example, LPS (at 0.2 μg/ml) treatment for overnight in BV2 cells leads to increased expression of pdcd4 and smad7 (FIG. 13A) and reduced expression of il10ra (FIG. 13C). […] Over-expression of miR-195-5p also attenuates LPS-induced pro-inflammatory cytokine release (IL-6 and TNFα; FIG. 13B). […] For these experiments, purified exosomes were derived from human APOE3/3 and 4/4 iPSC-derived astrocytes w/wo miR-195 over-expression detected by an exosome marker, ALIX. Fluorescence labeled exosomes were taken up by IBA1+ microglia cells.\nOver-expression of miR-195-5p in microglia inhibits LPS-induced proinflammatory responses and augments anti-inflammatory responses. […] However, over-expression of miR-195-5p reduces expression levels of pdcd4 and smad7 and increases il10a expression in the presence of LPS. Over-expression of miR-195-5p also attenuates LPS-induced pro-inflammatory cytokine release (IL-6 and TNFα; FIG. 17B)."}, "[1]": {"tested_on": "microglia-specific gene profiles, E4FAD mouse brain", "test": "scRNA-seq of EFAD mouse brains with miR-195-5p over-expression", "format": "in vivo", "conditions": "Mic.C0 and Mic.C2 microglial sub-clusters; N=4 pooled mice/condition", "description": "Changes in microglia-specific gene profiles with miR-195-5p over-expression in E4FAD mouse brain. scRNA-seq analysis of EFAD mouse brains with miR-195-5p over-expression was performed (FIG. 15; N=4 pooled mice/condition). Single cell suspensions were prepared and processed with the 10× Genomics Chromium platform. After quality control (QC), the gene-level UMIs data were normalized by a regularized negative binomial regression analysis (Hafemeister, C. & Satija, R. Genome Biology 20, 296, (2019)). Genes were selected that were detected in more than one cell and cells with sequencing reads in 200˜4,000 genes and mitochondrial read rate of less than 50%. […] The significant principal components as determined by a JackStraw permutation procedure were selected for cell clustering using Seurat's graph-based clustering approach (Butler, A., et al. Nature Biotechnology 36, 411, (2018)). […] After removing predicted doublets from the clusters, the cluster marker genes were observed and the expression patterns of known gene markers were analyzed to annotate clusters into major cell-types: excitatory neurons (Ex; marked by NRGN), inhibitory neurons (In; GAD1), astrocytes (Ast; AQP4, GFAP), oligodendrocytes (Oli; PLP1, MBP), microglia (Mic; CSF1R, CD74), oligodendrocyte progenitor cells (Opc; VCAN), and endothelial cells (End; FLT1). […]"}}}
{"sequence": "UAGCAGCACAGAAAUAUUGGC (chemistry not given here) [miR-195-5p, over-expressed via AAV2-containing miR-195-5p from ABM Inc]", "values": [{"measurement": "pTau levels", "setting": "phospho-Tau (pTau); ApoE3+/+ mice", "result": "Trends of reduction"}, {"measurement": "brain phospho-Tau (pTau) levels", "setting": "phospho-Tau (pTau); ApoE4+/+ KI mouse hippocampus, scramble controls 81.3", "result": "39.1 % of controls"}, {"measurement": "expression levels of pdcd4 and smad7", "setting": "BV2 cells; LPS overnight", "result": "dramatically reduces"}, {"measurement": "il10a expression", "setting": "BV2 cells; in the presence of LPS", "result": "increases"}, {"measurement": "top GO pathways enriched with microglial sub-cluster DEGs", "setting": "[1]", "result": "down-regulates innate immune system and effector responses"}]}
